# Test results as given in US10251395B2, “Substituted furano-/thienocycloalkylamino-2-pyrimidine derivatives and use thereof for controlling undesired plant growth” (Bayer CropScience Aktiengesellschaft, priority 2015, dated 2019).
# Key:
# logP (HCOOH) = format: physicochemical; conditions: HCOOH
# From the text: Table 2 (physicochemical characterization of selected synthesis examples)
# Matricaria inodora [1] = assay: Post-emergence herbicidal effect; format: in vivo; conditions: assessed visually after about 3 weeks vs untreated controls
# In short: (§1)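 Visual % damage vs untreated plants, ~3 wk after spraying (100% = dead, 0% = as control). Post-emergence foliar spray at one-leaf stage; WP/EC in water, 600–800 L/ha + 0.2% wetting agent; sandy loam, greenhouse.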
# Viola tricolor [2] = assay: Post-emergence herbicidal effect; format: in vivo; conditions: assessed visually after about 3 weeks vs untreated controls
# In short: as §1
# Abutilon theophrasti [3] = assay: Post-emergence herbicidal effect; format: in vivo; conditions: assessed visually after about 3 weeks vs untreated controls
# In short: as §1
# Setaria viridis [4] = assay: Post-emergence herbicidal effect; format: in vivo; conditions: assessed visually after about 3 weeks vs untreated controls
# In short: as §1
# Lolium multiflorum [5] = assay: Post-emergence herbicidal effect; format: in vivo; conditions: assessed visually after about 3 weeks vs untreated controls
# In short: as §1
# Amaranthus retroflexus [6] = assay: Post-emergence herbicidal effect; format: in vivo; conditions: assessed visually after about 3 weeks vs untreated controls
# In short: as §1
# Echinochloa crus-galli [7] = assay: Post-emergence herbicidal effect; format: in vivo; conditions: assessed visually after about 3 weeks vs untreated controls
# In short: as §1
# Avena fatua [8] = assay: Post-emergence herbicidal effect; format: in vivo; conditions: assessed visually after about 3 weeks vs untreated controls
# In short: as §1
# Veronica persica [9] = assay: Post-emergence herbicidal effect; format: in vivo; conditions: 320 g/ha, assessed visually after about 3 weeks vs untreated controls
# In short: as §1
# Polygonum convolvulus [10] = assay: Post-emergence herbicidal effect; format: in vivo; conditions: assessed visually after about 3 weeks vs untreated controls
# In short: as §1
# Alopecurus myosuroides [11] = assay: Post-emergence herbicidal effect; format: in vivo; conditions: assessed visually after about 3 weeks vs untreated controls
# In short: as §1
# Ipomoea purpurea [12] = assay: Post-emergence herbicidal effect; format: in vivo; conditions: assessed visually after about 3 weeks vs untreated controls
# In short: as §1
# Stellaria media [13] = assay: Post-emergence herbicidal effect; format: in vivo; conditions: assessed visually after about 3 weeks vs untreated controls
# In short: as §1
# Matricaria inodora [14] = assay: Pre-emergence herbicidal effect; format: in vivo; conditions: scored visually after 3 weeks
# In short: (§2)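 Seeds in sandy loam were covered with soil and treated pre-emergence with WP or EC formulations applied as aqueous spray with 0.2% wetting agent. Percent damage was scored visually after 3 weeks relative to untreated controls.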
# Viola tricolor [15] = assay: Pre-emergence herbicidal effect; format: in vivo; conditions: scored visually after 3 weeks
# In short: as §2
# Abutilon theophrasti [16] = assay: Pre-emergence herbicidal effect; format: in vivo; conditions: scored visually after 3 weeks
# In short: as §2
# Setaria viridis [17] = assay: Pre-emergence herbicidal effect; format: in vivo; conditions: scored visually after 3 weeks
# In short: as §2
# Lolium multiflorum [18] = assay: Pre-emergence herbicidal effect; format: in vivo; conditions: scored visually after 3 weeks
# In short: as §2
# Amaranthus retroflexus [19] = assay: Pre-emergence herbicidal effect; format: in vivo; conditions: scored visually after 3 weeks
# In short: as §2
# Echinochloa crus-galli [20] = assay: Pre-emergence herbicidal effect; format: in vivo; conditions: scored visually after 3 weeks
# In short: as §2
# Avena fatua [21] = assay: Pre-emergence herbicidal effect; format: in vivo; conditions: Dosage 320 g/ha, scored visually after 3 weeks
# In short: as §2
# Veronica persica [22] = assay: Pre-emergence herbicidal effect; format: in vivo; conditions: scored visually after 3 weeks
# In short: as §2
# Polygonum convolvulus [23] = assay: Pre-emergence herbicidal effect; format: in vivo; conditions: scored visually after 3 weeks
# In short: as §2
# Alopecurus myosuroides [24] = assay: Pre-emergence herbicidal effect; format: in vivo; conditions: scored visually after 3 weeks
# In short: as §2
# Ipomoea purpurea [25] = assay: Pre-emergence herbicidal effect; format: in vivo; conditions: Dosage 320 g/ha, scored visually after 3 weeks
# In short: as §2
# Stellaria media [26] = assay: Pre-emergence herbicidal effect; format: in vivo; conditions: scored visually after 3 weeks
# In short: as §2
smiles,measurement,setting,value
Cc1cc2c(s1)CCCC2Nc1ncc(C(F)(F)F)c(N)n1 (racemic) [compound 257],logP (HCOOH),logP (HCOOH),"oily; logP (HCOOH): 2.02; 1H NMR (CDCl3, 400 MHZ, δ in ppm): 2.10 (m, 1H, 1H of"
same,post-emergence efficacy MATIN,Matricaria inodora [1]; 80 g/ha,90%
same,post-emergence efficacy MATIN,Matricaria inodora [1]; 320 g/ha,90%
same,post-emergence efficacy VIOTR,Viola tricolor [2]; 80 g/ha,90%
same,post-emergence efficacy VIOTR,Viola tricolor [2]; 320 g/ha,90%
same,post-emergence efficacy ABUTH,Abutilon theophrasti [3]; 80 g/ha,90%
same,post-emergence efficacy ABUTH,Abutilon theophrasti [3]; 320 g/ha,90%
same,post-emergence efficacy SETVI,Setaria viridis [4]; 80 g/ha,90%
same,post-emergence efficacy SETVI,Setaria viridis [4]; 320 g/ha,90%
same,post-emergence efficacy LOLMU,Lolium multiflorum [5]; 80 g/ha,100%
same,post-emergence efficacy LOLMU,Lolium multiflorum [5]; 320 g/ha,100%
same,post-emergence efficacy AMARE,Amaranthus retroflexus [6]; 80 g/ha,80%
same,post-emergence efficacy AMARE,Amaranthus retroflexus [6]; 320 g/ha,90%
same,post-emergence efficacy ECHCG,Echinochloa crus-galli [7]; 80 g/ha,90%
same,post-emergence efficacy ECHCG,Echinochloa crus-galli [7]; 320 g/ha,100%
same,post-emergence efficacy AVEFA,Avena fatua [8]; 80 g/ha,70%
same,post-emergence efficacy AVEFA,Avena fatua [8]; 320 g/ha,100%
same,post-emergence efficacy VERPE,Veronica persica [9],100%
same,post-emergence efficacy POLCO,Polygonum convolvulus [10]; 80 g/ha,60%
same,post-emergence efficacy POLCO,Polygonum convolvulus [10]; 320 g/ha,80%
same,post-emergence efficacy ALOMY,Alopecurus myosuroides [11]; 80 g/ha,70%
same,post-emergence efficacy ALOMY,Alopecurus myosuroides [11]; 320 g/ha,90%
same,post-emergence efficacy PHBPU,Ipomoea purpurea [12]; 80 g/ha,80%
same,post-emergence efficacy PHBPU,Ipomoea purpurea [12]; 320 g/ha,90%
same,post-emergence efficacy STEME,Stellaria media [13]; 80 g/ha,80%
same,post-emergence efficacy STEME,Stellaria media [13]; 320 g/ha,100%
same,MATIN pre-emergence efficacy (herbicidal activity),Matricaria inodora [14]; Dosage 80 g/ha,100%
same,MATIN pre-emergence efficacy (herbicidal activity),Matricaria inodora [14]; Dosage 320 g/ha,100%
same,VIOTR pre-emergence efficacy (herbicidal activity),Viola tricolor [15]; Dosage 80 g/ha,100%
same,VIOTR pre-emergence efficacy (herbicidal activity),Viola tricolor [15]; Dosage 320 g/ha,100%
same,ABUTH pre-emergence efficacy (herbicidal activity),Abutilon theophrasti [16]; Dosage 80 g/ha,70%
same,ABUTH pre-emergence efficacy (herbicidal activity),Abutilon theophrasti [16]; Dosage 320 g/ha,100%
same,SETVI pre-emergence efficacy (herbicidal activity),Setaria viridis [17]; Dosage 80 g/ha,100%
same,SETVI pre-emergence efficacy (herbicidal activity),Setaria viridis [17]; Dosage 320 g/ha,100%
same,LOLMU pre-emergence efficacy (herbicidal activity),Lolium multiflorum [18]; Dosage 80 g/ha,100%
same,LOLMU pre-emergence efficacy (herbicidal activity),Lolium multiflorum [18]; Dosage 320 g/ha,100%
same,AMARE pre-emergence efficacy (herbicidal activity),Amaranthus retroflexus [19]; Dosage 80 g/ha,100%
same,AMARE pre-emergence efficacy (herbicidal activity),Amaranthus retroflexus [19]; Dosage 320 g/ha,100%
same,ECHCG pre-emergence efficacy (herbicidal activity),Echinochloa crus-galli [20]; Dosage 80 g/ha,100%
same,ECHCG pre-emergence efficacy (herbicidal activity),Echinochloa crus-galli [20]; Dosage 320 g/ha,100%
same,AVEFA pre-emergence efficacy (herbicidal activity),Avena fatua [21],100%
same,VERPE pre-emergence efficacy (herbicidal activity),Veronica persica [22]; Dosage 80 g/ha,100%
same,VERPE pre-emergence efficacy (herbicidal activity),Veronica persica [22]; Dosage 320 g/ha,100%
same,POLCO pre-emergence efficacy (herbicidal activity),Polygonum convolvulus [23]; Dosage 80 g/ha,100%
same,POLCO pre-emergence efficacy (herbicidal activity),Polygonum convolvulus [23]; Dosage 320 g/ha,100%
same,ALOMY pre-emergence efficacy (herbicidal activity),Alopecurus myosuroides [24]; Dosage 80 g/ha,100%
same,ALOMY pre-emergence efficacy (herbicidal activity),Alopecurus myosuroides [24]; Dosage 320 g/ha,100%
same,PHBPU pre-emergence efficacy (herbicidal activity),Ipomoea purpurea [25],100%
same,STEME pre-emergence efficacy (herbicidal activity),Stellaria media [26]; Dosage 80 g/ha,100%
same,STEME pre-emergence efficacy (herbicidal activity),Stellaria media [26]; Dosage 320 g/ha,100%
